Assay results as given in patent US6906078B2, “Method of using (H+/K+) ATPase inhibitors as antiviral agents” (Pharmacia Corporation, priority 1994, dated 2005).
Where two headings read alike, the source gives them in different places.

How the values were obtained:
[1] = biological target: T1, (H+/K+)-ATPase (Canis lupus familiaris, UniProt P50996); test: Inhibition of (H+/K+)-ATPase from canine gastric mucosa (inorganic phosphate release); assay type: biochemical
T1 construct: The microsomes retained at the 15%-30% sucrose interface, after centrifugation at 250,000×g for sixty minutes, were used as the source of (H^+/K^+)-ATPase; from tissue; host or cells: gastric glandular mucosa of mongrel dogs (microsomal fraction, lyophilized)
T1 sequence (P50996 whole entry): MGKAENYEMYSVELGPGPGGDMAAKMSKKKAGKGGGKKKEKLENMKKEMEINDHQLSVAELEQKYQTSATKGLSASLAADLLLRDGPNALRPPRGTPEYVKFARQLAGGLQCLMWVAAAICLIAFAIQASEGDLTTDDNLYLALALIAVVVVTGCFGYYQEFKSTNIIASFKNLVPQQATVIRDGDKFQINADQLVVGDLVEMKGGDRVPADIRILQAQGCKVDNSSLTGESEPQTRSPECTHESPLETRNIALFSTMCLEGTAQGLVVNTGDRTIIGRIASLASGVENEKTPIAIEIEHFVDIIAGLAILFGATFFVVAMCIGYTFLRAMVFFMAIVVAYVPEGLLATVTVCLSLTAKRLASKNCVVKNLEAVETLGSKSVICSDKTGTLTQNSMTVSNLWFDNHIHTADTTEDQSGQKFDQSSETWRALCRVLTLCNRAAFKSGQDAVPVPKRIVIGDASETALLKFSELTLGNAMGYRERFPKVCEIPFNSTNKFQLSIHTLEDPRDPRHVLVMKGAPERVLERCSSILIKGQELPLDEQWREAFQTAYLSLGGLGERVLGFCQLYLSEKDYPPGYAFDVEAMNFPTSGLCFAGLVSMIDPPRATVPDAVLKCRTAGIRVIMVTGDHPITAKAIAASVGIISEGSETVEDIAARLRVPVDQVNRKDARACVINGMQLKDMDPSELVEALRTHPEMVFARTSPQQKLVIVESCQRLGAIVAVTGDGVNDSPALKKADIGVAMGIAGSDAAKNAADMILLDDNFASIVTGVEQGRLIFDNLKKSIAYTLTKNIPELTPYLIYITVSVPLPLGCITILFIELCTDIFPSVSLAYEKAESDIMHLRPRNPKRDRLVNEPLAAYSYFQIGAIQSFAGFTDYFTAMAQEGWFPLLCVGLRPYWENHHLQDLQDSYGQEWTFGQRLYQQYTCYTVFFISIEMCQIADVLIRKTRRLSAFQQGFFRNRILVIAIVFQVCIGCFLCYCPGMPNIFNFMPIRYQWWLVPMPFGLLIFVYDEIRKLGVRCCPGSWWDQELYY
T1 sequence (P33704 whole entry partner): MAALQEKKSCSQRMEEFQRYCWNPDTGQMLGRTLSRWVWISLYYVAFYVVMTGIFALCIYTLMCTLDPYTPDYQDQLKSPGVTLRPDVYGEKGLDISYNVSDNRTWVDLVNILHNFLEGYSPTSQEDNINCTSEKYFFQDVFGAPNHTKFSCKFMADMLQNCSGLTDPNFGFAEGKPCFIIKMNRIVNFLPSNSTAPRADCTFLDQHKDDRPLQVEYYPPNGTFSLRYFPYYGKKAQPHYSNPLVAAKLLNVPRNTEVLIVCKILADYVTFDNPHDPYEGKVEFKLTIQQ
Description: Mongrel dogs weighing 15 to 25 kilograms were fasted for twenty-four hours, with water provided ad libitum. The animals were anesthetized with pentobarbital and the stomachs were removed. Subsequent tissue manipulations and subcellular fractionations were performed at 0° C. to 4° C. After the stomachs were cut open and rinsed with tap water, the antral and cardiac regions were removed and the remaining tissue was rinsed three times in saline. The glandular mucosa was removed mechanically, chopped finely in a medium containing 10 mM Tris hydrochloride (pH 7.4) and 250 mM sucrose, and homogenized. The homogenate was centrifuged at 20,000×g for twenty minutes and the pellet discarded. The supernatant was then centrifuged at 150,000×g for ninety minutes and the supernatant discarded. The pellet was resuspended in the Tris-HCl/sucrose medium by homogenization. Part (2 ml) of the resultant microsomal suspension was layered onto a step gradient consisting of 9 ml of 15% sucrose above 12 ml of 30% sucrose, each sucrose solution being buffered with 10 mM Tris hydrochloride (pH 7.4) containing 0.01% sodium azide. The microsomes retained at the 15%-30% sucrose interface, after centrifugation at 250,000×g for sixty minutes, were used as the source of (H^+/K^+)-ATPase. Microsomal preparations were lyophilized, a process that assured potassium ion permiability, and stored at −10° C. until used.
(H^+/K^+)-ATPase activity for each test compound was determined, in duplicate, by measuring the release of inorganic phosphate, which was assayed according to the method of J. ChandraRajan and L. Klein, Anal. Biochem., 72 , 407 (1976). The (H^+/K^+)-ATPase assay medium consisted of 20 mm mes-Tris (pH 6.0), 5 mM magnesium chloride, 25 mM sucrose, and 4 mM Tris-ATP with or without 20 mM potassium chloride in a total volume of 2 ml. Microsomal suspensions (20 to 60 mcl, containing about 25 mcg protein) were added to the assay medium, without Tris-ATP, and then preincubated with a test compound for thirty minutes at 37° C. The assay was initiated by adding Tris-ATP and the mixture was incubated another thirty minutes at 37° C. A 200-mcl aliquot of the assay mixture was then added to 1.4 ml of a solution consisting of 0.1 M sodium acetate (pH 4.0) and 10% sodium dodecylsulfate, followed by the addition of 200 mcl each of 1% ammonium molybdate and 1% ascorbic acid. At least fifteen minutes later, the optical absorbance at 870 nm (which was proportional to inorganic phosphate concentration up to 100 nmoles per tube, as determined by a standard curve) was obtained. Enzyme activity was linear with incubation time.
(H^+/K^+)-ATPase activity is represented by the difference between the measured activities in the presence of potassium-ion (K^+-stimulated) and in the absence of potassium ion (basal).

[2] = tested on: gastric acid secretion; test: Inhibition of gastric acid secretion in gastric fistula beagle dogs (histamine-stimulated); assay type: in vivo; conditions: for inhibition in vivo at 3 mg/kg: Canis lupus familiaris, 4 h, read-out: Gastric-Fistula Beagle % Inhibition (3 mg/kg dose)
Text: Adult female beagle dogs weighing 6 to 11 kilograms obtained from Laboratory Research Enterprises (Kalamazoo, Mich.) or from Hazelton Research Animals (Cumberland, Va.) were surgically implanted with a simple Thomas-type gastric cannula. After recovery from surgery, the dogs were trained to stand quietly, fully conscious, in Pavlov-type dog restraining slings and were acclimated to intravenous infusion of histamine dihydrochloride. During the course of these studies, no dog was used more than once a week. All dogs were deprived of food, but not water, for 18 hours prior to each assay. Each dog was initially infused with 0.15 M sodium chloride solution at a constant rate of […]. The volume of gastric secretions, collected in plastic bottles affixed to the cannula, were measured to the nearest 0.1 ml at 30 minute intervals. One of the following protocols was followed, depending on the route chosen for administration of test compound.
Intravenous dosing: Following a 30-minute basal secretion period, test compounds were administered intravenously (i.v.). At the end of an additional 30 minute period, the saline infusion was replaced with histamine dihydrochloride in saline administered at a rate 15 mcg per kilogram of body weight per hour. Histamine stimulation was maintained for a maximum of four hours during which time gastric secretions were collected every 30 minutes. The pH and titratable acidity were determined for samples from each collection period.
Intragastric dosing: Following a 30-minute basal secretion period, he collection bottles were removed, dosing plugs here inserted, and test compounds were administered intragastrically (i.g.) At the end of a 30-minute drug absorption period, the stomachs were emptied, the collection bottles were reattached, and collections were resumed at 30-minute intervals. Simultaneously, the saline infusion was replaced with a continuous intravenous infusion of histamine dihydrochloride in saline administered for four hours at a rate 15 mcg per kilogram of body weight per hour.
Intraduodenal dosing: Dogs were also equipped with duodenal cannulas for intraduodenal (i.d.) administration of test compounds. Dosing was otherwise performed as described for intragastric dosing.
Data from each protocol were analyzed for three gastric sample variables: volume of gastric juice, acid concentration, and total acid output. Percent inhibition for each four-hour experimental period was determined for each parameter by comparison with 3 to 4 controls in which […]. Estimates of ED50's were determined from dose response curves.

[3] = biological target: HCMV protease (assemblin) (Human cytomegalovirus, UniProt P16753); test: Enzymatic assay for HCMV protease (assemblin) inhibitors, fluorogenic substrate DE2; assay type: biochemical; conditions: for inhibition at 100 µM: read-out: Assemblin Inhibition % Inhibition at 100 μm
HCMV protease (assemblin), sequence (P16753 1-256): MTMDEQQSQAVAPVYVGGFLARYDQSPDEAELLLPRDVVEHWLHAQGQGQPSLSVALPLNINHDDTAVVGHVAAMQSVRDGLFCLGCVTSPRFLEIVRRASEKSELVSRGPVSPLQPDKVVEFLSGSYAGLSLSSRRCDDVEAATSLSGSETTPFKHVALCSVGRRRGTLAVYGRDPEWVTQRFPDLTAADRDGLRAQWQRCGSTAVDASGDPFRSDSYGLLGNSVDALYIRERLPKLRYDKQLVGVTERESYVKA
Description: The enzymatic assay for assemblin inhibitors compared the rate of product appearance between a control reaction containing no inhibitor and one that contained a known concentration of a potential inhibitor. There were two phases to the enzyme reaction. The first was a period of incubation of enzyme in the presence of inhibitor, but in the absence of the substrate. This incubation allowed for the inhibitor to bind and potentially block the enzyme from hydrolyzing the substrate. The second phase was started by adding the substrate and measuring the rate of product production.
The construction also encoded six additional histidine residues at the amino terminus of the protease. These additional histidine residues provided an affinity ligand by which it was purified using nickel-nitriloacetic acid-agarose (Qiagen).
The purified protease was stored as a 1-3 mg/ml stock solution in 50 mM sodium phosphate buffer, pH 7.4; 300 mM sodium chloride; 100 mM imidazole; 50% (v/v) glycerol. This stock was diluted with assay buffer to 4.8 μg/ml. A 100 μL aliquot of this solution was used in the enzyme reaction.
A specific substrate was synthesized based on the cleavage specificity of HCMV protease at the “maturation site” of the assembly protein (F. Liu and B. Roizman, J. Viral. 65, 5149 (1991), and A. R. Welch, et al, J. Viral., 65 4091 (1991)). The assembly protein maturation site has the sequence . . . AGVVNA*SCRLATA . . . (SEQ ID NO. 1); the substrate used was dabcycl-Abu-[…]-edans (SEQ ID NO. 2) (DE2). […] However, when the two chromophores are separated because of hydrolysis of the peptide moiety by HCMV protease the edans fluorescence was no longer quenched and an increase in fluorescence was realized. DE2 was stored as a stock solution at 160 μg/ml in dimethyl sulfoxide. This was diluted 10-fold with assay buffer to give a concentration of 16 μg/ml just before use. An aliquot of 50 μL was used in the reaction.
An assay Buffer (10 mM sodium phosphate buffer, pH 7.4; 150 mM sodium acetate; 0.1% CHAPS; and 20% (v/v) glycerol) was used to dilute stock solutions of enzyme and substrate.
Inhibitors were dissolved in dimethyl sulfoxide at 16-times the final assay concentration. A 10 μL aliquot of this inhibitor solution was used in the reaction.
A 100 μL aliquot of enzyme solution (4.8 μg/ml) was mixed with 10 μL of inhibitor solution in a 96-well plate cell and incubated at 22° C. for 30 minutes. Control reactions contained 10 μL of dimethylsulfoxide instead of inhibitor solution. After the preincubation was completed, 50 μL of substrate solution was added and the fluorescence recorded every 5 minutes for a period of 30 minutes. All reactions were run in triplicate with the exception of the uninhibited control reaction which was replicated 6-fold. The change in fluorescence was recorded over time and an average rate for each set of 3 reactions was calculated. Fluorescence assays were subject to spurious various due to factors such as dust in the 96-well plate; such results were omitted from the calculation of relative rates.

[4] = canine gastric mucosa microsomes, pH 6.0, 30 min preincubation at 37° C., read-out: (H+/K+)-ATPase IC50
[5] = iv, 3 mg/kg i.v., histamine-stimulated, four-hour period
[6] = at 100 μm, 30 min preincubation at 22° C.
[7] = intraduodenal, 3 mg/kg i.d., histamine-stimulated, four-hour period

| SMILES | IC50 [1, 4] [µM] | inhibition at 100 µM [3, 6] [%] | melting point [°C] | further results |
| --- | --- | --- | --- | --- |
| Cc1cc2nc([S+]([O-])Cc3ccccc3N)[nH]c2cc1C (stereo not shown) [Example 10, 2-[[(5,6-Dimethyl-1H-benzimidazol-2-yl)sulfinyl]methyl]benzenamine ¼ hydrate] | 13.5 | 43 |  | inhibition in vivo at 3 mg/kg [2, 5]: 44% |
| COc1ccc2[nH]c([S+]([O-])Cc3ccccc3N)nc2c1 (stereo not shown) [Example 12, 2-[[(5-Methoxy-1H-benzimidazol-2-yl)sulfinyl]methyl]benzenamine] | 11 | 26 | 147 to 148 | inhibition in vivo at 3 mg/kg [2, 7]: 90% |
| COc1cccc(C[S+]([O-])c2nc3ccccc3[nH]2)c1N.COc1cccc(C[S+]([O-])c2nc3ccccc3[nH]2)c1N.O (stereo not shown) [Example 22, 2-((1H-Benzimidazol-2-ylsulfinyl)methyl]-6-methoxybenzenamine hemihydrate] | 9.3 |  |  | Gastric-Fistula Beagle % Inhibition (3 mg/kg dose) ([2]; 3 mg/kg i.v., histamine-stimulated, four-hour period): 70 i.v. %; Assemblin Inhibition % Inhibition at 100 μm [3, 6]: 35% |
| CNc1ccccc1C[S+]([O-])c1nc2ccccc2[nH]1 (stereo not shown) [Example 32, 2-[(1H-Benzimidazol-2-ylsulfinyl)methyl]-N-methylbenzenamine monohydrate] | 0.64 |  |  | inhibition in vivo at 3 mg/kg ([2]; intraduodenal): 21%; inhibition at 100 µM [3]: 52% |
| COc1c(C)cc(N)c(C[S+]([O-])c2nc3ccccc3[nH]2)c1C (stereo not shown) [Example 39, 2-[(1H-Benzimidazol-2-ylsulfinyl)methyl]-4-methoxy-3,5-dimethylbenzenamine] | 0.2 | 46 | 150 to 155 | inhibition in vivo at 3 mg/kg [2, 7]: 53% |
| CCOc1ccc2[nH]c([S+]([O-])Cc3ccccc3N)nc2c1 (stereo not shown) [Example 45, 2-[[(5-Ethoxy-1H-benzimidazol-2-yl)sulfinyl]-methyl]benzenamine] | 24 | 51 | 154 to 155 |  |
| Nc1ccccc1C[S+]([O-])c1nc2cc(C(F)(F)F)ccc2[nH]1 (stereo not shown) [Example 47] | 4.4 | 40 | 152 to 152.5 | inhibition in vivo at 3 mg/kg [2, 7]: 37% |
| Cc1cc(Cl)cc(C[S+]([O-])c2nc3ccccc3[nH]2)c1N.Cc1cc(Cl)cc(C[S+]([O-])c2nc3ccccc3[nH]2)c1N.O (stereo not shown) [Example 57, 2-[(1H-Benzimidazol-2-ylsulfinyl)methyl]-4-chloro-6-methylbenzenamine hemihydrate] | 60 |  |  | Assemblin Inhibition % Inhibition at 100 μm [3, 6]: 66% |
| COc1cc(Cl)c(C)c(C[S+]([O-])c2nc3ccccc3[nH]2)c1N (stereo not shown) [Example 59, 2-[(1H-Benzimidazol-2-ylsulfinyl)methyl]-4-chloro-6-methoxy-3-methylbenzenamine] | 2.7 | 71 | 163 to 164 |  |
| CCOC(=O)c1ccc(N)c(C[S+]([O-])c2nc3ccccc3[nH]2)c1.CCOC(=O)c1ccc(N)c(C[S+]([O-])c2nc3ccccc3[nH]2)c1.O (stereo not shown) [Example 71, Ethyl 4-amino-3-[(1H-benzimidazol-2-ylsulfinyl)methyl]benzoate hemihydrate] | > 100 |  |  | Gastric-Fistula Beagle % Inhibition (3 mg/kg dose) ([2]; 3 mg/kg i.d., histamine-stimulated, four-hour period): 7 i.d. %; Assemblin Inhibition % Inhibition at 100 μm [3, 6]: 44% |
| CCOC(=O)c1ccc(N)c(C[S+]([O-])c2nc3ccc(OC)cc3[nH]2)c1 (stereo not shown) [Example 73, Ethyl 4-amino-3-[[(S-methoxy-1H-benzimidazol-2-yl)sulfinyl]methyl]benzoate] | > 100 | 50 |  |  |
| CN(C)c1ncccc1C[S+]([O-])c1nc2ccccc2[nH]1 (stereo not shown) [Example 83, 3-[(1H-Benzimidazol-2-ylsulfinyl)methyl]-N,N-dimethyl-2-pyridinamine ⅓ hydrate] |  | 83 |  | IC50 [1]: 8.6 µM; inhibition in vivo at 3 mg/kg [2, 5]: 15% |
